Assay results taken from US20080312184A1 (priority 2005, published 2008).
Like-named read-outs stand apart in the source and are kept apart here.

Test system: late blight phenylamide-resistant strain (zoospore+zoosporangia)
Type: in vivo, tomatoes (cultivar: sekai-ichi)
Conditions: single active ingredient
[1] = Table 3, treated concentration 10 ppm, examined after 5 days
[2] = Table 3, treated concentration 5 ppm, examined after 5 days

How did the “Control Value” (Table 3, treated concentration 20 ppm, examined after 5 days) turn out when `C[C@@]1(c2ccc(Oc3ccccc3)cc2)OC(=O)N(Nc2ccccc2)C1=O` (racemic) [Famoxadone, famoxadone] was run?
Its value is 62.

What does the source list for `CC(C)CC(C)c1sccc1NC(=O)c1cn(C)nc1C(F)(F)F` (racemic) [P (penthiopyrad), (RS)—N-[2-(1,3-dimethylbutyl)thiophen-3-yl]-1-methyl-3-tri fluoromethyl-1H-pyrazole-4-carboxamide]?
Control Value [1]: 20; Control Value (Table 9 (Example B), treated concentration 10 ppm): 20

For `CC(C)OC(=O)N[C@H](C(=O)N[C@H](C)c1nc2ccc(F)cc2s1)C(C)C` [Benthiavalicarb-isopropyl, benthiavalicarb-isopropyl], which “Control Value” [2] is on record?
Its value is 70.

For `Cc1ccc(-c2c(Cl)nc(C#N)n2S(=O)(=O)N(C)C)cc1` [Cyazofamid, cyazofamid], which “Control Value” [1] is on record?
Its value is 70.

`CCNc1nc(CC)c(C(=O)NC(C#N)c2cccs2)s1` (centres unmarked) [Ethaboxam, ethaboxam] was tested. Which “Control Value” [1] did it give?
The value was 62.

`CSC1=N[C@@](C)(c2ccccc2)C(=O)N1Nc1ccccc1` [Fenamidone, fenamidone] was tested. Which “Control Value” [1] did it give?
Its value is 58.

For `Cc1ccc(C(C)NC(=O)[C@@H](NC(=O)OC(C)C)C(C)C)cc1` (some centres unmarked) [Iprovalicarb, iprovalicarb], which “Control Value” [2] is on record?
Its value is 70.

With `COC(=O)N(OC)c1ccccc1COc1ccn(-c2ccc(Cl)cc2)n1` [Pyraclostrobin, pyraclostrobin] as the molecule, how does the “Control Value” (Table 9 (Example B), treated concentration 5 ppm) read?
The value was 62.

Which “Control Value” [1] does the source give for `CCC(C)(NC(=O)c1cc(Cl)c(C)c(Cl)c1)C(=O)CCl` (centres unmarked) [Zoxamide, zoxamide] here?
The value was 60.

Which “Control Value” (Table 3, treated concentration 50 ppm, examined after 5 days) does the source give for metiram here?
The value was 56.
